Measured values taken from ChEMBL document CHEMBL1909294, “Translating clinical findings into knowledge in drug safety evaluation--drug induced liver injury prediction system (DILIps)” (PLoS Comput Biol, 2011).
*1 amine or outer side, *2 acyl side, *3 side chain or, on linkers, in order; H or OH if unused. Where a SMILES comes first, the peptide text is derived from it. Bridges are numbered along the chain shown (N, C = ends). [ ]: non-standard residue; d: D form. The star is where a group is joined. pTerphenylCO(4''-OnC5H11) = CCCCCOc1ccc(-c2ccc(-c3ccc(C(=O)*)cc3)cc2)cc1; Orn(4R-OH,5R-OH) = O=C([C@H](C[C@@H](O)[C@@H](O)N[*:3])N[*:1])[*:2]; hTyr(3S-OH,4S-OH) = N[C@H](C(=O)O)[C@H](O)[C@@H](O)c1ccc(O)cc1; Pro(3S-OH,4S-Me) = C[C@H]1CN[C@H](C(=O)O)[C@H]1O; Hyp = O=C(O)[C@@H]1C[C@@H](O)CN1

Experiments:
Hepatotoxicity [1] = system: Hepatotoxicity;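 on HepSE bilirubinemia: bilirubinemia hepatic side effect score drawn from the DILIps training data, a prediction system for drug-induced liver injury; call rule not given here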;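 on HepSE cholecystitis: Cholecystitis-related hepatic side effect score drawn from the DILIps (drug-induced liver injury prediction) training data set; call rule not given here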;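 on HepSE cholelithiasis: hepatic side effect score for cholelithiasis, drawn from the DILIps training data for predicting drug-induced liver injury; call rule not given here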;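 on HepSE cirrhosis: cirrhosis hepatic side effect score taken from the DILIps (drug-induced liver injury prediction) training set; call rule not given here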;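 on HepSE elevated liver function tests: hepatic side effect score for raised liver function tests, as recorded in the DILIps training set used for predicting drug-induced liver injury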; on HepSE hepatic failure: call rule not given here;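 on HepSE hepatomegaly: hepatic side effect score for hepatomegaly, taken from the training set of the DILIps drug-induced liver injury prediction system; call rule not given here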
Hepatotoxicity [2] = system: Hepatotoxicity; remark: listed apart in the source;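 on HepSE bilirubinemia: bilirubinemia hepatic side effect score drawn from the DILIps training data, a prediction system for drug-induced liver injury; call rule not given here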;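 on HepSE cholecystitis: Cholecystitis-related hepatic side effect score drawn from the DILIps (drug-induced liver injury prediction) training data set; call rule not given here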;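 on HepSE cholelithiasis: hepatic side effect score for cholelithiasis, drawn from the DILIps training data for predicting drug-induced liver injury; call rule not given here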;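 on HepSE cirrhosis: cirrhosis hepatic side effect score taken from the DILIps (drug-induced liver injury prediction) training set; call rule not given here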;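 on HepSE elevated liver function tests: hepatic side effect score for raised liver function tests, as recorded in the DILIps training set used for predicting drug-induced liver injury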; on HepSE hepatic failure: call rule not given here;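 on HepSE hepatomegaly: hepatic side effect score for hepatomegaly, taken from the training set of the DILIps drug-induced liver injury prediction system; call rule not given here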
Hepatotoxicity [3] = system: Hepatotoxicity; remark: listed apart in the source;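 on HepSE bilirubinemia: bilirubinemia hepatic side effect score drawn from the DILIps training data, a prediction system for drug-induced liver injury; call rule not given here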;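 on HepSE cholecystitis: Cholecystitis-related hepatic side effect score drawn from the DILIps (drug-induced liver injury prediction) training data set; call rule not given here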;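 on HepSE cholelithiasis: hepatic side effect score for cholelithiasis, drawn from the DILIps training data for predicting drug-induced liver injury; call rule not given here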;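 on HepSE cirrhosis: cirrhosis hepatic side effect score taken from the DILIps (drug-induced liver injury prediction) training set; call rule not given here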;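 on HepSE elevated liver function tests: hepatic side effect score for raised liver function tests, as recorded in the DILIps training set used for predicting drug-induced liver injury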; on HepSE hepatic failure: call rule not given here
Hepatotoxicity [4] = system: Hepatotoxicity; remark: listed apart in the source;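 on HepSE bilirubinemia: bilirubinemia hepatic side effect score drawn from the DILIps training data, a prediction system for drug-induced liver injury; call rule not given here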;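 on HepSE cholecystitis: Cholecystitis-related hepatic side effect score drawn from the DILIps (drug-induced liver injury prediction) training data set; call rule not given here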;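 on HepSE cholelithiasis: hepatic side effect score for cholelithiasis, drawn from the DILIps training data for predicting drug-induced liver injury; call rule not given here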;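 on HepSE cirrhosis: cirrhosis hepatic side effect score taken from the DILIps (drug-induced liver injury prediction) training set; call rule not given here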;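 on HepSE elevated liver function tests: hepatic side effect score for raised liver function tests, as recorded in the DILIps training set used for predicting drug-induced liver injury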; on HepSE hepatic failure: call rule not given here
Hepatotoxicity [5] = system: Hepatotoxicity; remark: listed apart in the source; on HepSE hepatic failure: call rule not given here
Hepatotoxicity [6] = system: Hepatotoxicity; remark: listed apart in the source; on HepSE hepatic failure: call rule not given here
Hepatotoxicity [7] = system: Hepatotoxicity; remark: listed apart in the source
Hepatotoxicity [8] = system: Hepatotoxicity; remark: listed apart in the source
Hepatotoxicity [9] = system: Hepatotoxicity; remark: listed apart in the source
Hepatotoxicity [10] = system: Hepatotoxicity; remark: listed apart in the source
Hepatotoxicity [11] = system: Hepatotoxicity; remark: listed apart in the source
Hepatotoxicity [12] = system: Hepatotoxicity; remark: listed apart in the source
Hepatotoxicity [13] = system: Hepatotoxicity; remark: listed apart in the source
Hepatotoxicity [14] = system: Hepatotoxicity; remark: listed apart in the source

Molecule | HepSE_bilirubinemia (Hepatotoxicity [1]) | HepSE_cholecystitis (Hepatotoxicity [2]) | HepSE_cholelithiasis (Hepatotoxicity [3]) | HepSE_cirrhosis (Hepatotoxicity [4]) | HepSE_elevated liver function tests (Hepatotoxicity [5]) | HepSE_hepatic failure (Hepatotoxicity [6]) | HepSE_hepatic necrosis (Hepatotoxicity [7]) | HepSE_hepatitis (Hepatotoxicity [8]) | HepSE_hepatomegaly (Hepatotoxicity [9]) | HepSE_jaundice (Hepatotoxicity [10]) | HepSE_liver disease (Hepatotoxicity [11]) | HepSE_liver fatty (Hepatotoxicity [12]) | HepSE_liver function tests abnormal (Hepatotoxicity [13]) | HepSE_Combined Scores (Hepatotoxicity [14]) | further results
CCCCCOc1ccc(-c2ccc(-c3ccc(C(=O)N[C@H]4C[C@@H](O)[C@@H](O)NC(=O)[C@@H]5[C@@H](O)[C@@H](C)CN5C(=O)[C@H]([C@@H](C)O)NC(=O)[C@H]([C@H](O)[C@@H](O)c5ccc(O)cc5)NC(=O)[C@@H]5C[C@@H](O)CN5C(=O)[C@H]([C@@H](C)O)NC4=O)cc3)cc2)cc1 [ANIDULAFUNGIN] ({pTerphenylCO(4''-OnC5H11)}-[Orn(4R-OH,5R-OH)]T[Hyp][hTyr(3S-OH,4S-OH)]T[Pro(3S-OH,4S-Me)]; lactam 1-C) | 0 | 0 | 0 | 0 | 0 | 0 | 1 | 0 | 0 | 0 | 0 | 0 | 1 | 2 | –
CC(C)(C)NC[C@H](O)COc1ccccc1C1CCCC1 [PENBUTOLOL] | 0 | 0 | 0 | 0 | 0 | 0 | 0 | 0 | 0 | 0 | 0 | 0 | 0 | 0 | –
C[C@H](CCC(=O)O)[C@H]1CC[C@H]2[C@@H]3[C@@H](O)C[C@@H]4C[C@H](O)CC[C@]4(C)[C@H]3CC[C@]12C [URSODIOL] | 0 | 1 | 0 | 0 | 0 | 0 | 0 | 0 | 0 | 0 | 0 | 0 | 0 | 1 | –
PORFIMER SODIUM | 0 | 0 | 0 | 0 | 0 | 0 | 0 | 0 | 0 | 1 | 0 | 0 | 0 | 1 | –
CCCCC[C@](C)(O)/C=C/[C@@H]1[C@@H](C/C=C/CCCC(=O)O)[C@@H](O)C[C@H]1O | 0 | 0 | 0 | 0 | 0 | 0 | 0 | 0 | 0 | 0 | 0 | 0 | 0 | 0 | –
CISPLATIN | 0 | 0 | 0 | 0 | 0 | 0 | 0 | 0 | 0 | 0 | 0 | 0 | 0 | 0 | –
COc1ccccc1OCCNCC(O)COc1cccc2[nH]c3ccccc3c12 (stereo not drawn) [CARVEDILOL] | 1 | 0 | 0 | 0 | 0 | 0 | 0 | 0 | 0 | 0 | 0 | 0 | 0 | 1 | –
Nc1ccn(C[C@@H](CO)OCP(=O)(O)O)c(=O)n1.O.O [CIDOFOVIR] | 0 | 0 | 0 | 0 | 0 | 0 | 1 | 1 | 1 | 1 | 0 | 0 | 0 | 4 | –
CC(C)C[C@H](NC(=O)[C@H](Cc1ccccc1)NC(=O)c1cnccn1)B(O)O [BORTEZOMIB] | – | – | – | – | – | – | – | – | – | – | – | – | – | – | HepSE_bilirubinemia (Hepatotoxicity [1]; Liver): 1; HepSE_cholecystitis (Hepatotoxicity [2]; Liver): 0; HepSE_cholelithiasis (Hepatotoxicity [3]; Liver): 0; HepSE_cirrhosis (Hepatotoxicity [4]; Liver): 0; HepSE_elevated liver function tests (Hepatotoxicity [5]; Liver): 0; HepSE_hepatic failure (Hepatotoxicity [6]; Liver): 1; HepSE_hepatic necrosis (Hepatotoxicity [7]; Liver): 0; HepSE_hepatitis (Hepatotoxicity [8]; Liver): 1; HepSE_hepatomegaly (Hepatotoxicity [9]; Liver): 0; HepSE_jaundice (Hepatotoxicity [10]; Liver): 0; HepSE_liver disease (Hepatotoxicity [11]; Liver): 0; HepSE_liver fatty (Hepatotoxicity [12]; Liver): 0; HepSE_liver function tests abnormal (Hepatotoxicity [13]; Liver): 0; HepSE_Combined Scores (Hepatotoxicity [14]; Liver): 3
C[C@H]1C[C@@H]2[C@H]([C@@H](O)C[C@@]3(C)[C@H]2CC[C@]3(O)C(=O)CO)[C@@]2(C)C=CC(=O)C=C12 [METHYLPREDNISOLONE] | 0 | 0 | 0 | 0 | 0 | 0 | 0 | 0 | 0 | 0 | 0 | 0 | 0 | 0 | –
O=C(O[C@H]1C[C@H]2CC[C@@H](C1)[N+]21CCCC1)C(O)(c1ccccc1)c1ccccc1.[Cl-] [TROSPIUM CHLORIDE] | 0 | 0 | 0 | 0 | 0 | 0 | 0 | 0 | 0 | 0 | 0 | 0 | 0 | 0 | –
OCCN1CCN(CCCN2c3ccccc3Sc3ccc(Cl)cc32)CC1 [PERPHENAZINE] | 0 | 0 | 0 | 0 | 0 | 0 | 0 | 0 | 0 | 1 | 0 | 0 | 0 | 1 | –
